In ChEMBL document CHEMBL5634091, “Cantharidin analogue alleviates dextran sulfate sodium-induced colitis in mice by inhibiting the activation of NF-κB signaling” (Eur J Med Chem, 2023):
pIC50: −log10 of the molar value. Active and inactive are the calls of the source. The rule behind the calls is not given here.

Columns and labels:
[1] = Cytotoxicity against TNF-alpha induced HEK293T cells assessed as inhibition of cell growth preincubated for 24 hrs followed by TNFalpha stimulation and measured after 4 hrs by SRB assay; assay type: toxicity, cell-based, HEK-293T; conditions: human, HEK293T cells induced with TNF-alpha; time 28 hrs
[2] = Cytotoxicity against LPS/IFNgamma induced mouse RAW264.7 cells assessed as inhibition of cell growth preincubated for 24 hrs followed by LPS/IFNgamma stimulation and measured after 24 hrs by SRB assay; assay type: toxicity, cell-based; conditions: RAW264.7 cells induced with LPS/IFNgamma, time 48 hrs
[3] = Inhibition of TNF-alpha induced NF-kappaB activation in HEK293T cells preincubated for 4 hrs and followed by TNF-alpha stimulation and measured after 4 hrs by dual-luciferase reporter assay; assay type: cell-based; conditions: Homo sapiens, HEK-293T
[4] = Selectivity index, ratio of CC50 for cytotoxicity against TNF-alpha induced HEK293T cells to IC50 for inhibition of TNF-alpha induced NF-kappaB activation in HEK293T cells; assay type: toxicity, cell-based; conditions: human, HEK293T cells induced with TNF-alpha; read-out: Ratio IC50
[5] = Selectivity index, ratio of CC50 for cytotoxicity against LPS/IFNgamma induced mouse RAW264.7 cells to IC50 for antiinflammatory activity in mouse RAW264.7 cells assessed as inhibition in LPS/IFNgamma-induced NO production; assay type: toxicity, cell-based; conditions: RAW264.7 cells induced with LPS/IFNgamma, read-out: Ratio IC50
RAW264.7 [6] = assay: Antiinflammatory activity in mouse RAW264.7 cells assessed as inhibition in LPS/IFNgamma-induced NO production preincubated for 2 hrs followed by LPS/IFNgamma stimulation and measured after 24 hrs by Griess reagent based assay; assay type: functional, cell-based
Mus musculus [7] = assay: Anti-inflammatory activity in C57BL/6 mouse model of DSS-induced acute ulcerative colitis assessed as reduction in p65 expression in colon at 50 mg/kg, po administered once a day for 7 days by immunohistochemical analysis; assay type: functional, organism-based; conditions: time 7.0 day
RAW264.7 [8] = assay: Antiinflammatory activity in mouse RAW264.7 cells assessed as inhibition in LPS/IFNgamma-induced NO production at 200 uM preincubated for 2 hrs followed by LPS/IFNgamma stimulation and measured after 24 hrs by Griess reagent based assay relative to control; assay type: functional; conditions: time 26 hrs
[9] = Toxicity in po dosed Kunming mouse assessed as maximum tolerated dose; assay type: organism-based; conditions: in vivo
[10] = Toxicity in Kunming mouse assessed as number of mouse survived at 117 mg/kg, po measured for 15 days; assay type: organism-based; conditions: in vivo, 360 h, time 15 day
[11] = Toxicity in Kunming mouse assessed as number of mouse survived at 40 mg/kg, po measured for 15 days; assay type: organism-based; conditions: in vivo, 360 h, time 15 day
[12] = Toxicity in Kunming mouse assessed as number of mouse survived at 82 mg/kg, po measured for 15 days; assay type: organism-based; conditions: in vivo, 360 h, time 15 day
[13] = Toxicity in Kunming mouse assessed as number of mouse survived at 57 mg/kg, po measured for 15 days; assay type: organism-based; conditions: in vivo, 360 h, time 15 day
Mus musculus [14] = organism: Mus musculus; assay: Anti-inflammatory activity in C57BL/6 mouse model of DSS-induced acute ulcerative colitis; assay type: functional, organism-based
[15] = Toxicity in Kunming mouse assessed as increase in body weight at 40 mg/kg, po measured for 15 days (reference value: 12.38%); assay type: organism-based; conditions: in vivo, 360 h, time 15 day
[16] = Toxicity in Kunming mouse assessed as effect on kidney by measuring systemic edema at 117 mg/kg, po measured for 15 days; assay type: organism-based; conditions: in vivo, 360 h, time 15 day
Mus musculus [17] = assay: Anti-inflammatory activity in C57BL/6 mouse model of DSS-induced acute ulcerative colitis assessed as reduction in ulcerations at 100 to 300 mg/kg, po administered once a day for 7 days by H and E staining based analysis; assay type: functional, organism-based; conditions: dose 100-300 mg/kg, time 7.0 day
[18] = Toxicity in Kunming mouse assessed as number of mouse survived at 66 mg/kg, po measured for 15 days; assay type: organism-based; conditions: in vivo, 360 h, time 15 day
[19] = Toxicity in Kunming mouse assessed as increase in body weight at 42 mg/kg, po measured for 15 days (reference value: 12.38%); assay type: organism-based; conditions: in vivo, 360 h, time 15 day
[20] = Toxicity in Kunming mouse assessed as number of mouse survived at 42 mg/kg, po measured for 15 days; assay type: organism-based; conditions: in vivo, 360 h, time 15 day
[21] = Toxicity in Kunming mouse assessed as number of mouse survived at 53 mg/kg, po measured for 15 days; assay type: organism-based; conditions: in vivo, 360 h, time 15 day

Structure (SMILES) | CC50 at 4 h [1] [µM] | CC50 at 24 h [2] [µM] | pIC50 [3] | selectivity ratio [4] | selectivity ratio [5] | pIC50 (RAW264.7 [6]) | further results
CC(C)(C)OC(=O)C1=C(C(=O)OC(C)(C)C)C2C=CC1O2 | 80.3 | 12.8 | 4.38 | 1.91 | 3.46 | 5.43 | –
COC(=O)C1=C(C(=O)OC)C2OC1CC2C#Cc1cc(OC)cc(OC)c1 (centres undefined) | 34.4 | 5.06 | 5.20 | 5.45 | 1.37 | 5.43 | –
Nc1ccc(O)c(C(=O)O)c1 | – | – | – | – | – | – | Activity (Mus musculus [7]): inactive
COc1cc2c(cc1OC)C1C=CC2O1 | 114 | > 200 | 4.70 | 5.72 | – | < 3.70 | inhibition at 200 µM (RAW264.7 [8]): ~30%
COc1ccc(C#CC2CC3OC2c2cc(Br)c(Br)cc23)cc1 (centres undefined) | 140 | 198 | 4.40 | 4.26 | 1.07 | 3.73 | –
COC(=O)C1=C(C(=O)OC)C2OC1CC2C#Cc1ccc(Cl)cc1 (centres undefined) | 20.9 | 5.23 | 4.92 | 1.74 | 1.48 | 5.45 | –
COC(=O)C1=C(C(=O)OC)C2OC1CC2C#Cc1ccccc1 (centres undefined) | 62.1 | 5.69 | 4.71 | 3.21 | 1.53 | 5.43 | –
COC(=O)C1=C(C(=O)OC)C2OC1CC2C#Cc1ccc(OC)cc1 (centres undefined) | 22.4 | 7.51 | 4.60 | 0.9 | 4.15 | 5.74 | –
COc1ccc(C#CC2CC3OC2c2c(OC)ccc(OC)c23)cc1 (centres undefined) | 199 | 200 | 3.86 | 1.45 | 1.05 | 3.72 | –
COC(=O)C1=C(C(=O)OC)C2OC1CC2C#Cc1ccc(Br)cc1 (centres undefined) | 21.7 | 5.06 | 5.35 | 4.9 | 1.46 | 5.46 | –
COC(=O)C1=C(C(=O)OC)C2C=CC1O2 | 99.9 | 12.8 | 4.02 | 1.04 | 3.1 | 5.39 | MTD [9]: 40 mg/kg; Activity [10]: 3; Activity [11]: 0; Activity [12]: 1; Activity [13]: 1; Activity (Mus musculus [14]): inactive; Activity [15]: 10.6%; Activity [16]: Toxic
C[C@@H]1C[C@H]2[C@@H]3CCC4=CC(=O)C=C[C@]4(C)[C@@]3(F)[C@@H](O)C[C@]2(C)[C@@]1(O)C(=O)CO [DEXAMETHASONE] | > 200 | – | 4.91 | > 16.4 | – | – | –
COC(=O)C1=C(C(=O)OC)C2OC1CC2C#Cc1ccccc1OC (centres undefined) | 30.7 | 5.46 | 5.00 | 3.09 | 1.45 | 5.42 | Activity (Mus musculus [17]): Active
COc1ccc(OC)c2c1C1C=CC2O1 | 118 | > 200 | 4.61 | 4.79 | – | < 3.70 | inhibition at 200 µM (RAW264.7 [8]): ~30%
O=C1OC(=O)C2C3CCC(O3)C12 (centres undefined) [DEMETHYL-CANTHARIDIN] | > 200 | 78.1 | 3.98 | > 1.91 | 0.79 | 4.00 | Activity [18]: 1; Activity [19]: 15.62%; MTD [9]: 53 mg/kg; Activity [20]: 0; Activity [12]: 3; Activity [21]: 0; Activity (Mus musculus [14]): inactive
COC(=O)C1=C(C(=O)OC)C2OC1CC2C#Cc1ccc(F)cc1 (centres undefined) | 26.5 | 6.25 | 5.25 | 4.75 | 1.67 | 5.43 | –
COc1ccc(C#CC2CC3OC2c2ccccc23)cc1 (centres undefined) | 181 | 191 | 3.80 | 1.15 | 1.19 | 3.79 | –
CSC(=N)N | – | > 200 | – | – | > 15.8 | 4.90 | –
Brc1cc2c(cc1Br)C1C=CC2O1 | 194 | > 200 | 4.14 | 2.7 | – | < 3.70 | inhibition at 200 µM (RAW264.7 [8]): ~30%
CCOC(=O)C1=C(C(=O)OCC)C2C=CC1O2 | 59.9 | 20.4 | 4.47 | 1.77 | 5.28 | 5.41 | MTD [9]: 57 mg/kg; Activity [10]: 3; Activity [11]: 0; Activity [12]: 1; Activity [13]: 0; Activity (Mus musculus [14]): inactive; Activity [15]: 2.31%; Activity [16]: Toxic
CCOC(=O)C1=C(C(=O)OCC)C2OC1CC2C#Cc1ccc(OC)cc1 (centres undefined) | 52.8 | 18.9 | 4.92 | 4.34 | 3.73 | 5.29 | –
COc1ccc(C#CC2CC3OC2c2cc(OC)c(OC)cc23)cc1 (centres undefined) | 198 | 184 | 3.88 | 1.48 | 0.99 | 3.73 | –
C1=CC2OC1c1ccccc12 | 111 | > 200 | 4.71 | 5.65 | – | < 3.70 | inhibition at 200 µM (RAW264.7 [8]): ~30%
C[C@@]12C(=O)OC(=O)[C@]1(C)[C@H]1CC[C@@H]2O1 [CANTHARIDIN] | – | 3.88 | – | – | 0.38 | 4.99 | –
